One compound from ChEMBL document CHEMBL5678800 (Mol Cancer Ther, 2009) can be followed below.

Molecules are shown by their SMILES.

Series [1] has as its system GEO. As to the kind of experiment: Antitumor activity against human GEO cells xenografted in nude mouse assessed as tumor growth inhibition at 25 mg/kg, po administered for 3 days in presence of cetuximab at 0.25 mg/kg relative to control. The class given is functional. The following applies: 72 h, time 3 day, read-out: TGI. A general note: A xenograft is tissue or cells of one species grown in another, often human tumour cells in immunodeficient mice.

The subject of series [2] is GEO. As to the kind of experiment: Antitumor activity against human GEO cells xenografted in nude mouse assessed as tumor growth delay time at 25 mg/kg, po administered for 3 days in presence of cetuximab at 0.25 mg/kg relative to control. In kind it is functional. Conditions: time 3 day.
The test system of series [3] is GEO. As to the kind of experiment: Antitumor activity against human GEO cells xenografted in nude mouse assessed as tumor growth delay time at 6.25 mg/kg, po administered for 3 days in presence of cetuximab at 0.25 mg/kg relative to control. The class given is functional. The following applies: time 3 day.
In series [4] the test system is GEO. As to the kind of experiment: Antitumor activity against human GEO cells xenografted in nude mouse assessed as tumor growth inhibition at 12.5 mg/kg, po administered for 3 days in presence of cetuximab at 0.125 mg/kg relative to control. Conditions: 72 h, time 3 day, read-out: TGI. In kind it is functional.
Series [5] in a line: Plasma concentration in nude mouse xenografted with mouse IGF-1R-Sal cells po administered for 2 hrs by LC-MS/MS analysis.
Series [6] has as its system GEO. As to the kind of experiment: Antitumor activity against human GEO cells xenografted in nude mouse assessed as tumor growth delay time at 25 mg/kg, po administered for 17 days relative to control. The following applies: time 17 day. In kind it is functional.
Series [7] in a line: Toxicity in nude mouse xenografted with human GEO cells assessed as mortality at 25 mg/kg, po administered for 3 days in presence of cetuximab at 0.25 mg/kg relative to control. In kind it is organism-based. The following applies: in vivo, time 3 day.

By mortality is commonly meant the percentage killed.

Turning to `C[C@@]1(C(=O)Nc2ccc(F)nc2)CCCN1c1nc(Nc2cc(C3CC3)n[nH]2)c2cccn2n1` [BMS-754807], in the series with GEO [1], the inhibition in vivo at 25 mg/kg came out at 88%. Moreover, the Time in the series on GEO [2] turned out to be 24 days; in the series with GEO [3], 23 days; in the series on GEO [6], 7 days. Also, the inhibition in vivo at 12.5 mg/kg in the series on GEO [4] came out at 86%. In addition, the concentration at 2 h in series [5] worked out at 94 nM. For the same compound, the mortality at 72 h in series [7] came out at 0%.
